Test results published in patent US6548494B1, “Tricyclic inhibitors of poly(ADP-ribose) polymerases” (Agouron Pharmaceuticals, Inc., priority 1999, dated 2003).
“And” between values parts separate entries of the source, which are not always exact repeats. Identical values can stand only once.

Assays:
[1] = tested on: A549 cells; test: Cytotoxicity potentiation assay; type: cell-based; conditions: test compound 0.4 μM, ratio of IC50 of topotecan alone to IC50 of topotecan with test compound
Experimental: A549 cells (ATCC, Rockville, Md.) were seeded into 96-well cell culture plates (Falcon brand, Fisher Scientific, Pittsburgh, Pa.) 16 to 24 hours before experimental manipulation. Cells were then treated with a test compound (or a combination of test compounds where indicated) each at a concentration of 0.4 μM for either 3 days or 5 days. At the end of treatments, relative cell number was determined either by MTT assay or SRB assay. For the MTT assay, 0.2 μg/μl of MTT (3-(4,5-dimethylthiazol-2-yl)-2,5-diphenyltetrazolium bromide) (Sigma Chemical Co., St. Louis, Mo.) was added to each well of a plate, and the plate was incubated in a cell-culture incubator for 4 hours. Metabolized MTT in each well was solubilized in 150 μl of DMSO (Sigma Chemical Co.) with shaking and quantified with a Wallac 1420 Victor plate reader (EG&G Wallac, Gaithersburg, Md.) at 540 nm. For the SRB assay, cells were fixed with 10% trichloroacetic acid (Sigma Chemical Co) for an hour at 4° C. After extensively washing, fixed cells were stained for 30 minutes with 0.4% sulforhodamine B (SRB, Sigma Chemical Co.) in 1% acetic acid (Sigma Chemical Co). Unbound SRB was washed away with 1% acetic acid. Then the cultures were air-dried, and dye was solubilized with 10 mM unbuffered Tris base (Sigma Chemical Co) with shaking. The bound dye was measured photometrically with the Wallac Victor plate reader at 515 nm. The ratio of the OD (optical density) value of a compound-treated culture to the OD value of a mock-treated culture, expressed in percentage, was used to quantify the cytotoxicity of a compound. […] To quantify the potentiation of the cytotoxicity of topotecan or temozolomide by test compounds, a dimensionless parameter PF50 is used and is defined as the ratio of the IC50 of topotecan or temozolomide alone to the IC50 of topotecan or temozolomide in combination with a test compound. For the compounds of the invention, PF50 values were determined by testing with topotecan.

[2] = target: purified PARP protein (Homo sapiens, UniProt P09874); test: PARP enzyme inhibition assay; type: biochemical; conditions: 20 nM purified PARP (5 nM for tight-binding inhibitors), 500 μM NAD+, 25° C.; several values in one cell = repeat determinations; read-out: Inhibition Constant Ki
purified PARP protein, sequence (P09874 whole entry): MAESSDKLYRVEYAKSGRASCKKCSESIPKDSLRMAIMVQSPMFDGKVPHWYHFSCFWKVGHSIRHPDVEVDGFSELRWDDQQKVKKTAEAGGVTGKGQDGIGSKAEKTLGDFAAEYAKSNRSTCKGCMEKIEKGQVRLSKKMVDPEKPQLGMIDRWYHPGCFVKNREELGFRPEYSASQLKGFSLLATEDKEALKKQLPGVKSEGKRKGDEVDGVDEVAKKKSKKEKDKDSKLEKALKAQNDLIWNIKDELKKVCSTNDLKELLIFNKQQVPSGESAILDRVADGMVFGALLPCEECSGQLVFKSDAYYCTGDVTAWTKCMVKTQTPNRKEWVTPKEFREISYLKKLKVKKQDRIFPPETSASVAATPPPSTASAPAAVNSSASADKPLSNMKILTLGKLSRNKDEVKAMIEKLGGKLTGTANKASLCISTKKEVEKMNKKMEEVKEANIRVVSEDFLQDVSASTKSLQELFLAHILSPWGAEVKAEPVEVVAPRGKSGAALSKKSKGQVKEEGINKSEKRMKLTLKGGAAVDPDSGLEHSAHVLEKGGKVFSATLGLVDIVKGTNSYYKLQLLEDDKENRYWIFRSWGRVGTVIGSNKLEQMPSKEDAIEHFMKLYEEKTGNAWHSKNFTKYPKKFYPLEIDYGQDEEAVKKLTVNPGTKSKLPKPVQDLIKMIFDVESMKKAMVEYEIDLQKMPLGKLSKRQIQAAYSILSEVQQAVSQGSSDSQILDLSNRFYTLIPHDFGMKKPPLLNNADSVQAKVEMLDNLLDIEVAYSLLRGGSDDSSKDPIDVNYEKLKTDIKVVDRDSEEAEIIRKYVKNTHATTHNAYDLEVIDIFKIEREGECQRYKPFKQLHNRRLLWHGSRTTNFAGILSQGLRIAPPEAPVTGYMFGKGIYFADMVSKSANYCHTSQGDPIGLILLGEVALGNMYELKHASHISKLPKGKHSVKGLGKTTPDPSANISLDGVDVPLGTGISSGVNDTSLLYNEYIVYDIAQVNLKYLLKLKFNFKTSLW

melting point | Ki [2] | SMILES | Cytotoxicity Potentiation PF50 [1]
269 °C (dec.) | 10.9 nM and 12 nM | O=C1NCCn2c(-c3ccncc3)nc3cccc1c32 [Example 3, 1-Pyridin-4-yl-8,9-dihydro-7H-2,7,9a-triaza-benzo[cd]azulen-6-one] | 1.4
245 to 247 °C | 6.5 nM | O=C1NCCn2c(-c3ccc(F)c(F)c3)nc3cccc1c32 [Example 4, 1-(3,4-Difluoro-phenyl)-8,9-dihydro-7H-2,7,9a-triaza-benzo[cd]azulen-6-one] | 1.5
253 to 255 °C | 7.7 nM | O=C1NCCn2c(-c3ccccc3Cl)nc3cccc1c32 [Example 5, 1-(2-Chloro-phenyl)-8,9-dihydro-7H-2,7,9a-triaza-benzo[cd]azulen-6-one] | 1.3
216 to 219 °C | 4.3 nM | O=C1NCCn2c(-c3cccc(Oc4ccccc4)c3)nc3cccc1c32 [Example 6, 1-(3-Phenoxy-phenyl)-8,9-dihydro-7H-2,7,9a-triaza-benzo[cd]azulen-6-one] | 2
247 to 250 °C | 6.2 nM | O=C1NCCn2c(-c3cccs3)nc3cccc1c32 [Example 8, 1-Thiophen-2-yl-8,9-dihydro-7H-2,7,9a-triaza-benzo[cd]azulen-6-one] | 1.9
250 to 252 °C | 11.2 nM | O=C1NCCn2c(-c3cccc(C(F)(F)F)c3)nc3cccc1c32 [Example 10, 1-(3-Trifluoromethyl-phenyl)-8,9-dihydro-7H-2,7,9a-triaza-benzo[cd]azulen-6-one] | 1.7
249 to 250 °C | 21 nM and 17 nM | O=C1NCCn2c(-c3ccccn3)nc3cccc1c32 [Example 12, 1-Pyridin-2-yl-8,9-dihydro-7H-2,7,9a-triaza-benzo[cd]azulen-6-one] | 1.3
272 to 274 °C | 5.7 nM and 7.6 nM | O=C1NCCn2c(-c3ccc(Cl)cc3)nc3cccc1c32 [Example 14, 1-(4-Chloro-phenyl)-8,9-dihydro-7H-2,7,9a-triaza-benzo[cd]azulen-6-one] | 1.8
245 to 247 °C | 4.8 nM and 5.3 nM | O=C1NCCn2c(-c3cccc(Oc4ccncc4)c3)nc3cccc1c32 [Example 17, 1-[3-(Pyridin-4-yloxy)-phenyl]-8,9-dihydro-7H-2,7,9a-triaza-benzo[cd]azulen-6-one] | 1.7
284 to 287 °C | 3.4 nM | O=C1NCCn2c(-c3ccc(F)cc3)nc3cc(F)cc1c32 [Example 18, 4-Fluoro-1-(4-fluoro-phenyl)-8,9-dihydro-7H-2,7,9a-triaza-benzo[cd]azulen-6-one] | 2
224 °C (dec.) |  | S=C1NCCn2c(-c3ccccc3)nc3cccc1c32 [Example 25, 1-Phenyl-8,9-dihydro-7H-2,7,9a-triaza-benzo[cd]azulen-6-thione] | 1.4
192 to 194 °C (dec.) | 6.3 nM | CN(C)Cc1cccc(-c2nc3cccc4c3n2CCNC4=O)c1 [Example 32, 1-(3-Dimethylaminomethyl-phenyl)-8,9-dihydro-7H-2,7,9a-triaza-benzo[cd]azulen-6-one] | 1.8
 | 4.1 nM | O=C1NCCn2c(-c3ccc(CN4CC=CC4)cc3)nc3cc(F)cc1c32 [Example 177, 1-[4-(2,5-Dihydro-pyrrol-1-ylmethyl)-phenyl]-4-fluoro-8,9-dihydro-7H-2,7,9a-triaza-benzo[cd]azulen-6-one] | 2.5
 | 6 nM | COc1cccc(CCNCc2ccc(-c3nc4cccc5c4n3CCNC5=O)cc2)c1 [Example 184, 1-(4-{[2-(3-Methoxy-phenyl)-ethylamino]-methyl}-phenyl)-2,7,8,9-tetrahydro-2,7,9a-triaza-benzo[cd]azulen-6-one] | 2.2
 | 5.5 nM | COc1ccc(CCNCc2ccc(-c3nc4cccc5c4n3CCNC5=O)cc2)cc1 [Example 186, 1-(4-{[2-(4-Methoxy-phenyl)-ethylamino]-methyl}-phenyl)-2,7,8,9-tetrahydro-2,7,9a-triaza-benzo[cd]azulen-6-one] | 2.2
 | 2.8 nM and 5.2 nM | O=C1NCCn2c(-c3ccc(CNC4Cc5ccccc5C4)cc3)nc3cccc1c32 [Example 197, 1-[4-(Indan-2-ylaminomethyl)-phenyl]-8,9-dihydro-7H-2,7,9a-triaza-benzo[cd]azulen-6-one] | 2.5
 | 4.6 nM | CCN(CCc1ccccn1)Cc1ccc(-c2nc3cccc4c3n2CCNC4=O)cc1 [Example 203, 1-(4-{[Ethyl-(2-pyridin-2-yl-ethyl)-amino]-methyl}-phenyl)-8,9-dihydro-7H-2,7,9a-triaza-benzo[cd]azulen-6-one] | 2.0
 | 4.2 nM | CN(CCc1cc2ccccc2[nH]1)Cc1ccc(-c2nc3cccc4c3n2CCNC4=O)cc1 [Example 207, 1-[4-({[2-(1H-Indol-2-yl)-ethyl]-methyl-amino}-methyl)-phenyl]-8,9-dihydro-7H-2,7,9a-triaza-benzo[cd]azulen-6-one] | 2.4
 | 5 nM | O=C1NCCn2c(-c3ccc(CN4CCCC4)cc3)nc3cccc1c32 [Example 210, 1-(4-Pyrrolidin-1-ylmethyl-phenyl)-8,9-dihydro-7H-2,7,9a-triaza-benzo[cd]azulen-6-one] | 2.3
 | 4.5 nM | O=C1NCCn2c(-c3ccc(CN4CCCC4)cc3)nc3cc(F)cc1c32 [Example 211, 4-Fluoro-1-(4-pyrrolidin-1-ylmethyl-phenyl)-8,9-dihydro-7H-2,7,9a-triaza-benzo[cd]azulen-6-one] | 2.3
 | 6.8 nM | CC1CCCN1Cc1ccc(-c2nc3cccc4c3n2CCNC4=O)cc1 (stereo not shown) [Example 212, 1-[4-(2-Methyl-pyrrolidin-1-ylmethyl)-phenyl]-8,9-dihydro-7H-2,7,9a-triaza-benzo[cd]azulen-6-one] | 2.0
 | 8.5 nM | C[C@H]1Cn2c(-c3ccc(CN4CC=CC4)cc3)nc3cccc(c32)C(=O)N1 [Example 223, (S)-1-[4-(2,5-Dihydro-pyrrol-1-ylmethyl)-phenyl]-8-methyl-8,9-dihydro-7H-2,7,9a-triaza-benzo[cd]azulen-6-one] | 2.1
 | 8 nM | C[C@H]1Cn2c(-c3ccc(CN4CCCC4)cc3)nc3cccc(c32)C(=O)N1 [Example 233, (S)-8-Methyl-1-(4-pyrrolidin-1-ylmethyl-phenyl)-8,9-dihydro-7H-2,7,9a-triaza-benzo[cd]azulen-6-one] | 2.2
 | 5.8 nM | CC(c1ccc(-c2nc3cccc4c3n2CCNC4=O)cc1)N(C)C (stereo not shown) [Example 245, 1-[4-(1-Dimethylamino-ethyl)-phenyl]-8,9-dihydro-7H-2,7,9a-triaza-benzo[cd]azulen-6-one] | 2.1
 | 3.3 nM | CC(c1ccc(-c2nc3cccc4c3n2CCNC4=O)cc1)N1CCCC1 (stereo not shown) [Example 246, 1-[4-(1-Pyrrolidin-1-yl-ethyl)-phenyl]-8,9-dihydro-7H-2,7,9a-triaza-benzo[cd]azulen-6-one] | 2.3
